Reference: patent publication US11530181B2, “IL-6 inhibitors and methods of treatment” (University of Florida Research Foundation, Incorporated, priority 2018, dated 2022)

Legend:
[1] = tested on: tert-immortalized human mammaryepithelial cells (HMEC-tert); experiment: Cell viability of normal cells HMEC-tert vs SUM159; format: cell-based; details: 0.25-10 μM, 48 hours
Experimental: (§1) Cell viability was evaluated by using the MTT assay in triple replicates in one experiment and repeated for three times. Cancer cells were seeded in 96-well plates at a density of 3,000 cells per well. The cells were incubated at 37° C. for a period of 24 hours. Escalating concentrations of IL-6/gp130 inhibitors were added in triplicate to the plates in the presence of 10% FBS. After incubation for 48 or 72 hours, a stock solution of MTT (0.5 mg/ml) was then added to each well containing the treated cells, followed by incubation at 37° C. for 3 h. After removal of medium, the MTT dye was dissolved with spectrophotometric grade DMSO and the absorbance was read at 570 nm. The IC50 value is determined by interpolation based on the absorbance value halfway between positive and negative controls. In the experiment of LLM4 showing higher efficacy in cancer cells with higher levels of IL-6, instead of using medium with 10% FBS, DMEM with 0% FBS was used in order to eliminate the influence of trace amounts of growth factors and cytokines in FBS.
To examine whether the novel compounds show cytotoxicity to normal cells, cell viability was also measured when the normal cell line tert-immortalized human mammaryepithelial cells (HMEC-tert) [Yang H, Pinello C E, Luo J, et al. Small-molecule inhibitors of acetyltransferase p300 identified by high-throughput screening are potent anticancer agents. […]

[2] = tested on: PE/CA-PJ49 cell line; experiment: Inhibitory activity in PTPRD mutant cell line PE/CA-PJ49; format: cell-based; details: PE/CA-PJ49, 48 h
Experimental: Human breast cancer cell lines MCF7, MDA-MB-231 and SUM159 were maintained in Dulbecco's modified Eagle medium (DMEM). Human pancreatic cancer cell line BxPC-3 was maintained in RPMI 1640 medium. Human pancreatic cancer cell line Capan-1 was maintained in Iscove's Modified Dulbecco's Medium (IMEM). All media were supplemented with 10% FBS and 1% penicillin/streptomycin, and cells were incubated in a humidified 37° C. incubator with 5% CO2. PE/CA-PJ49 cell line was purchased from external sources and maintained according to manufacturer's protocol.
as §1
Protein tyrosine […] receptor type D (PTPRD) is reported to serve as a tumor suppressor in various human cancers [Peyser et. al, PLoS One (2015) 10(8)]. PTPRD mutation is also known to be associated with increased STAT3 expression [Peyser et. al, PLoS One (2015) 10(8)]. Table 8 captures the inhibitory activities of various compounds in the PTPRD mutant cell line, PE/CA-PJ49.

[3] = tested on: STAT3 phosphorylation in SUM159 cells; experiment: Western blot, STAT3 phosphorylation in SUM159 (IL-6 autocrine); format: cell-based, human; details: SUM159, 1-4 μM, 16 h
Experimental: (§2) Cells were harvested and lysed in cold radioimmunoprecipitation assay (RIPA) lysis buffer containing proteasome inhibitor cocktail and phosphatase inhibitor cocktail. The protein concentrations were determined using the BCA Protein Assay kit. After adding the loading buffer and boiling at 95° C. for 10 minutes, equivalent amounts of proteins were loaded on and separated by SDS-PAGE, and then were transferred to PVDF membranes. Membranes were probed with primary antibodies (1:1000) against phospho-STAT3 (Tyr705), STAT3, phospho-STAT1 (Tyr701), STAT1, phospho-STAT6 (Tyr 641), STAT6, and GAPDH, respectively, and horseradish peroxidase (HRP)-conjugated secondary antibody (1:10000) (Cell Signaling Technology, Beverly, Mass.). Membranes were analyzed using Enhanced Chemiluminescence Plus reagents and either scanned with the Storm Scanner (Amersham Pharmacia Biotech, Inc., Piscataway, N.J.) or imaged with ChemiDoc MP imaging system (Bio-Rad, Hercules, Calif.). […] The cells were harvested after 30 minutes and analyzed by Western blot.
BxPC-3 and SUM159 cells were seeded in 10 cm plates (1 million cells per plate) and allowed to adhere overnight. […] Then cells were harvested and analyzed by western blotting.
SUM159 cells were seeded in 10 cm plates (1 million cells per plate) and allowed to adhere overnight. […] Then cells were harvested and analyzed by western blotting.

[4] = tested on: OSM induced STAT3 phosphorylation; experiment: Western blot, OSM induced STAT3 phosphorylation in MCF7; format: cell-based, human
Experimental: as §2
(§3) MCF7 breast cancer cells were seeded in 10 cm plates (1 million cells per plate) and allowed to adhere overnight. […] The cells were harvested after 30 minutes and analyzed by western blotting.

[5] = tested on: INF-γ induced STAT1 phosphorylation; experiment: Western blot, INF-γ induced STAT1 phosphorylation in MCF7; format: cell-based, human; details: MCF7, pre-treatment 2, 3 and 4 hours
Experimental: as §2, §3

[6] = tested on: IL-4 induced STAT6 phosphorylation; experiment: Western blot, IL-4 induced STAT6 phosphorylation in MCF7; format: cell-based, human; details: MCF7, pre-treatment 2, 3 and 4 hours
Experimental: as §2, §3

Q: Which “differential cytotoxic effects to HMEC-tert and SUM159 cells” value [1] does the source give for O=C(Nc1ccccc1-c1ccn[nH]1)c1ccc(OCCN2CCCCC2)cc1 [LLM418, N-(2-(1H-pyrazol-5-yl)phenyl)-4-(2-(piperidin-1-yl)ethoxy)benzamide] here?
A: selectively kill cancer cells

Q: And the IC50 [2]?
A: 1790 ± 480 nM

Q: And the “inhibition of STAT3 phosphorylation” value [3]?
A: stronger inhibition than LLM414

Q: And the “inhibition of OSM induced STAT3 phosphorylation” value ([4]; MCF7, 4 μM)?
A: very little inhibitory effect

Q: What about the “effect on STAT1 phosphorylation” value [5] of the same compound?
A: little effect

Q: And the “effect on STAT6 phosphorylation” value [6]?
A: little effect

Q: For O=C(Nc1cc(F)ccc1-n1cccc1)c1ccc(OCCCN2CCCCC2)cc1 [LLM4, N-(5-fluoro-2-(1H-pyrrol-1-yl)phenyl)-4-(3-(piperidin-1-yl)propoxy)benzamide], which “OSM induced STAT3 phosphorylation” value ([4]; MCF7, 15 μM, 2, 3 and 4 hours) is on record?
A: remain intact

Q: And the “effect on INF-γ induced STAT1 phosphorylation” value ([5]; 15 μM)?
A: no effect

Q: What about the “effect on IL-4 induced STAT6 phosphorylation” value ([6]; 15 μM) of the same compound?
A: no effect

Q: For O=C(Nc1cccc(OCCN2CCCCC2)c1)Nc1cccc(-c2ccn[nH]2)c1 [LLM414, 1-(3-(1H-pyrazol-5-yl)phenyl)-3-(3-(2-(piperidin-1-yl)ethoxy)phenyl)urea], which “differential cytotoxic effects to HMEC-tert and SUM159 cells” value [1] is on record?
A: selectively kill cancer cells

Q: What about the IC50 [2] of the same compound?
A: 3410 ± 990 nM

Q: What about the “inhibition of STAT3 phosphorylation” value [3] of the same compound?
A: inhibited STAT3 phosphorylation in SUM159 cells
